Laboratory results: PubChem BioAssay AID180 (DTP/NCI, 2004)
Values joined by “and” are separate entries in the source; they are usually repeats but may differ in a detail not shown here. Equal entries are not always repeated.

System: BDF1 mice, Adenocarcinoma 755 s.c., tumor weight T/C
Assay: NCI In Vivo Anticancer Drug Screen. Data for tumor model Adenocarcinoma 755 (subcutaneous) in B6D2F1 (BDF1) mice
Settings: endpoint: mean tumor weight, higher = larger tumour
Method in brief: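 In vivo antitumor screen on a transplantable tumor line. Result equals the measure in compound-treated animals divided by the same measure in vehicle controls.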

For `S=c1nc[nH]c2nc[nH]c12`, the T/C (dose: 10.0 mg/kg/injection, schedule: Q01DX011 (ip), vehicle: alkali diluted with saline) was 1 % of control and 9 % of control, the T/C (dose: 10.0 mg/kg/injection, schedule: Q01DX011 (oral), vehicle: alkali diluted with saline) was 1 % of control and the T/C (dose: 10.7 mg/kg/injection, schedule: Q01DX011 (ip), vehicle: carboxymethylcellulose (CMC)) was 7 % of control and 8 % of control. For the same molecule, the T/C (dose: 11.0 mg/kg/injection, schedule: Q01DX011 (ip), vehicle: carboxymethylcellulose (CMC)) was 4 % of control, the T/C (dose: 12.5 mg/kg/injection, schedule: Q01DX011 (ip), vehicle: carboxymethylcellulose (CMC)) was 1 % of control and the T/C (dose: 15.0 mg/kg/injection, schedule: Q01DX011 (ip), vehicle: carboxymethylcellulose (CMC)) was 4 % of control. The T/C (dose: 15.0 mg/kg/injection, schedule: Q01DX011 (ip), vehicle: saline) was 1 % of control and 4 % of control, the T/C (dose: 20.0 mg/kg/injection, schedule: Q01DX011 (ip), vehicle: alkali diluted with saline) was 1 % of control and 4 % of control and the T/C (dose: 21.4 mg/kg/injection, schedule: Q01DX011 (ip), vehicle: carboxymethylcellulose (CMC)) was 6 % of control. For the same molecule, the T/C (dose: 22.0 mg/kg/injection, schedule: Q01DX011 (ip), vehicle: carboxymethylcellulose (CMC)) was 3 % of control, the T/C (dose: 25.0 mg/kg/injection, schedule: Q01DX011 (ip), vehicle: alkali diluted with saline) was 2 % of control and 11 % of control and the T/C (dose: 25.0 mg/kg/injection, schedule: Q01DX011 (ip), vehicle: carboxymethylcellulose (CMC)) was 4 % of control. The T/C (dose: 25.0 mg/kg/injection, schedule: Q01DX011 (ip), vehicle: saline) was 3 % of control, the T/C (dose: 30.0 mg/kg/injection, schedule: Q01DX011 (ip), vehicle: carboxymethylcellulose (CMC)) was 4 % of control and 6 % of control and the T/C (dose: 35.0 mg/kg/injection, schedule: Q01DX011 (ip), vehicle: carboxymethylcellulose (CMC)) was 5 % of control. The T/C (dose: 40.0 mg/kg/injection, schedule: Q01DX011 (ip), vehicle: alkali diluted with saline) was 2 % of control, the T/C (dose: 40.0 mg/kg/injection, schedule: Q01DX011 (ip), vehicle: carboxymethylcellulose (CMC)) was 5 % of control and the T/C (dose: 44.0 mg/kg/injection, schedule: Q01DX007 (ip), vehicle: carboxymethylcellulose (CMC)) was 3 % of control. The T/C (dose: 44.0 mg/kg/injection, schedule: Q01DX011 (ip), vehicle: alkali diluted with saline) was 2 % of control, the T/C (dose: 44.0 mg/kg/injection, schedule: Q01DX011 (ip), vehicle: carboxymethylcellulose (CMC)) was 3 % of control and 5 % of control and the T/C (dose: 50.0 mg/kg/injection, schedule: Q01DX011 (ip), vehicle: alkali diluted with saline) was 4 % of control. The T/C (dose: 60.0 mg/kg/injection, schedule: Q01DX011 (ip), vehicle: carboxymethylcellulose (CMC)) was 4 % of control, the T/C (dose: 62.0 mg/kg/injection, schedule: Q01DX011 (ip), vehicle: saline) was 2 % of control and the T/C (dose: 65.0 mg/kg/injection, schedule: Q01DX011 (ip), vehicle: alkali diluted with saline) was 1 % of control. The T/C (dose: 80.0 mg/kg/injection, schedule: Q01DX011 (ip), vehicle: alkali diluted with saline) was 2 % of control and 4 % of control, the T/C (dose: 100.0 mg/kg/injection, schedule: Q01DX011 (ip), vehicle: alkali diluted with saline) was 1 % of control and the T/C (dose: 100.0 mg/kg/injection, schedule: Q01DX011 (ip), vehicle: saline) was 1 % of control. The T/C (dose: 320.0 mg/kg/injection, schedule: Q01DX001 (ip), vehicle: alkali diluted with saline) was 5 % of control, the T/C (dose: 320.0 mg/kg/injection, schedule: Q01DX001 (oral), vehicle: alkali diluted with saline) was 19 % of control and the T/C (dose: 320.0 mg/kg/injection, schedule: Q07DX002 (ip), vehicle: alkali diluted with saline) was 4 % of control. For the same molecule, the T/C (dose: 480.0 mg/kg/injection, schedule: Q01DX001 (oral), vehicle: alkali diluted with saline) was 22 % of control, the T/C (dose: 480.0 mg/kg/injection, schedule: Q03DX004 (oral), vehicle: alkali diluted with saline) was 1 % of control and the T/C (dose: 480.0 mg/kg/injection, schedule: Q07DX002 (oral), vehicle: alkali diluted with saline) was 2 % of control. For the same molecule, the T/C (dose: 640.0 mg/kg/injection, schedule: Q01DX001 (oral), vehicle: alkali diluted with saline) was 10 % of control, the T/C (dose: 640.0 mg/kg/injection, schedule: Q07DX002 (oral), vehicle: alkali diluted with saline) was 2 % of control and the T/C (dose: 125.0 micrograms/kg/injection, schedule: Q01DX011 (ip), vehicle: saline) was 11 % of control. For the same molecule, the T/C (dose: 250.0 micrograms/kg/injection, schedule: Q01DX011 (ip), vehicle: saline) was 20 % of control, the T/C (dose: 500.0 micrograms/kg/injection, schedule: Q01DX011 (ip), vehicle: saline) was 9 % of control and the T/C (dose: 1000.0 micrograms/kg/injection, schedule: Q01DX011 (ip), vehicle: saline) was 3 % of control.
